Measurements: ChEMBL document CHEMBL1128120, “Phosphorous acid analogs of L-680,833, a potent monocyclic -lactam inhibitor of human leukocyte elastase” (Bioorg Med Chem Lett, 1995)

Assays:
[1] = molecular target: T1, Neutrophil elastase (Homo sapiens) (UniProt P08246); assay: (§1) In vitro inhibition of Human Leukocyte Elastase enzyme in whole blood stimulated with A-23187 (at dose 3 uM); type: functional, tissue-based
T1 sequence (whole entry): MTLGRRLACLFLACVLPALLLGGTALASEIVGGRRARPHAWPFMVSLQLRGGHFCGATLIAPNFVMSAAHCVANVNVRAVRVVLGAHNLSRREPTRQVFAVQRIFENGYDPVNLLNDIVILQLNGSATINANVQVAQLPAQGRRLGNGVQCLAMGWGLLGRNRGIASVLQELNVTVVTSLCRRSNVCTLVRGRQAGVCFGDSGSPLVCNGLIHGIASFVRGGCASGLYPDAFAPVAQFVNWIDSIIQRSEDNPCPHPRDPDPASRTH

[2] = molecular target: T1, Neutrophil elastase (Homo sapiens); assay: Compound was tested for inhibition of Human Leukocyte Elastase enzyme, expressed in term of bimolecular rate constant (Kinact/Ki)
[3] = test system: Cricetinae gen. sp.; assay: In vivo inhibition in HLE-induced hamster lung hemorrhage when given orally at 10 mg/kg, 2 hr before challenge by HLE; type: functional; conditions: route oral
[4] = molecular target: T2, Neutrophil elastase (Homo sapiens, UniProt P08246); assay: as §1; type: functional, tissue-based
T2 sequence (P08246 whole entry): T1 sequence (whole entry)

[5] = test system: Cricetinae gen. sp.; assay: Effective dose required to in vivo inhibition in HLE-induced hamster lung hemorrhage when given orally 5 hr before the enzyme; type: functional; conditions: po

SMILES	inhibition [1] [%]	Ratio [2] [M⁻¹ s⁻¹]	inhibition in vivo at 10 mg/kg [3] [%]	IC50 [4] [µM]	ED50 [5] [mg/kg]
C=CCP(=O)(O)Cc1ccc(O[C@@H]2N(C(=O)N[C@H](CCC)c3ccc(C)cc3)C(=O)C2(CC)CC)cc1	48	740000	19		
CCC[C@@H](NC(=O)N1C(=O)C(CC)(CC)[C@@H]1Oc1ccc(CC(=O)O)cc1)c1ccc(C)cc1		622000		9	1.5
CCC[C@@H](NC(=O)N1C(=O)C(CC)(CC)[C@@H]1Oc1ccc(CP(=O)(O)c2ccccc2)cc1)c1ccc(C)cc1	34	1.17e+06	27		
CCC[C@@H](NC(=O)N1C(=O)C(CC)(CC)[C@@H]1Oc1ccc(CP(=O)(OCC)OCC)cc1)c1ccc(C)cc1	63	1.16e+06	15		
CCC[C@@H](NC(=O)N1C(=O)C(CC)(CC)[C@@H]1Oc1ccc(CP(=O)(O)CCC)cc1)c1ccc(C)cc1	50	906000	15		
CCC[C@@H](NC(=O)N1C(=O)C(CC)(CC)[C@@H]1Oc1ccc(CP(=O)(CCC)OC(OC(=O)CC)C(C)C)cc1)c1ccc(C)cc1 (stereo not given in full)		1.05e+06			
C=CCP(=O)(Cc1ccc(O[C@@H]2N(C(=O)N[C@H](CCC)c3ccc(C)cc3)C(=O)C2(CC)CC)cc1)OCC (stereo not given in full)	51	1.33e+06	64		
CCC[C@@H](NC(=O)N1C(=O)C(CC)(CC)[C@@H]1Oc1ccc(CP(=O)(O)O)cc1)c1ccc(C)cc1	61	217000	17		
CCC[C@@H](NC(=O)N1C(=O)C(CC)(CC)[C@@H]1Oc1ccc(CP(C)(=O)O)cc1)c1ccc(C)cc1	55	417000	-59		
